Measured values from paper PMC7761743, “Structure and Characterization of Phosphoglucomutase 5 from Atlantic and Baltic Herring—An Inactive Enzyme with Intact Substrate Binding” (Biomolecules, 2020).

Target: T1, bPGM5 (Baltic herring PGM5) (Clupea harengus, UniProt A0A6P3VN15)
T1 construct: full length, 567 residues; codon-optimized, E. coli BL21(DE3), pNIC28-Bsa4, N-terminal TEV-cleavable His6-tag (kept in crystals, removed for DSF); monomer; Ser121 phosphorylated in crystal
Assay: X-ray crystal structure, […] Å
Format: binding
Conditions: active site; His6-tagged protein with phosphorylated Ser121, metal modelled as Ni2+; crystals soaked overnight with 5 mM glucose-1,6-bisphosphate, observed ligand is G1P; pH 6.5

T1 sequence (A0A6P3VN15 entry or part of it): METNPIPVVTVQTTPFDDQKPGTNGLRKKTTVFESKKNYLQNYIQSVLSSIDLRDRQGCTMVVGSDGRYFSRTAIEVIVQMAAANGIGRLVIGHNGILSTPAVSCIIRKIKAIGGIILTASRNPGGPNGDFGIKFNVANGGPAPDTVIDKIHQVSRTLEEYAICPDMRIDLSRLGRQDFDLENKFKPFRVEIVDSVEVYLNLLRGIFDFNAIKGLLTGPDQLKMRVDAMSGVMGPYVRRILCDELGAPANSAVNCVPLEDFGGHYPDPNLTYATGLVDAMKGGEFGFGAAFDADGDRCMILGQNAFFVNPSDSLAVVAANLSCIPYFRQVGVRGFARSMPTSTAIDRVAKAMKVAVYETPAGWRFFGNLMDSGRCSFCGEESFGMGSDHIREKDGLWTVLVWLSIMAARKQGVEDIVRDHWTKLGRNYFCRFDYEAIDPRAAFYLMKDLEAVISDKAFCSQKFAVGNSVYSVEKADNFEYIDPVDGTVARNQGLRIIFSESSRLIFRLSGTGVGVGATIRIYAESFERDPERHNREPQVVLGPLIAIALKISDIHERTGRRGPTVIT

## O=P(O)(O)O[C@H]1O[C@H](CO)[C@@H](O)[C@H](O)[C@H]1O [G1P, glucose-1-phosphate]
  X-ray crystal structure, 1.95 Å: the observed ligand is G1P instead of the G16P that was used in crystallization
